“And” between values parts separate entries of the source, which are not always exact repeats. Identical values can stand only once. “Also recorded” adds a separate entry of the source. Like-named read-outs stand apart in the source and are kept apart here.
Columns and labels:
[1] = target: SHP2 (Homo sapiens, UniProt Q06124); assay: Covalent modification of SHP2 by QTOF ESI-MS / LC-MS; details: 100 μM compound; cefsulodin three hours, phenyl vinyl sulfone 10 minutes
Protocol: Agilent 6520 Accurate-Mass was used for the Q-TOF ESI-MS studies. Water and acetonitrile (both containing 0.1% formic acid) were used as eluent (80% water, flow 50 μL/min, run time 5 minutes). ESI positive mode was used with mass range from 300 to 1700, the gas temperature was 325° C., and vaporizer temperature was: […]. The sample was adjusted to have a concentration at 0.1 mg/mL, the injection volume of each sample was 1 μL. Mass hunter software was used for protein deconvolution data analysis to calculate the molecular weight of the protein.
(§1) Agilent Technologies 6130 quadrupole LC-MS instrument was used for the LC-MS studies. A C18 reserved phase column (phenomenex, 50×4.6 mm) was used as stationary phase, water and methanol (both containing 0.1% formic acid) were used as mobile phase (gradient: 0-100% methanol, flow 0.8 mL/min, run time 15 minutes), and UV absorbance at the fixed wavelength of 254 nm and positive and negative ESI-MS data were recorded. The sample was adjusted to have a concentration at 0.1 mg/mL, and the injection volume of each sample was 0.2 μL. The retention time and corresponding ESI-MS data were used as identity of molecules.

[2] = target: T1, SHP2 (Homo sapiens, UniProt Q06124); assay: SHP2 phosphatase inhibition assay (pNPP); format: biochemical; details: for Fold selectivity for SHP2 against PTPs examined: cefsulodin: with the exception of SHP1; for Mode of SHP2 inhibition: with respect to pNPP
T1 sequence (Q06124 224-528): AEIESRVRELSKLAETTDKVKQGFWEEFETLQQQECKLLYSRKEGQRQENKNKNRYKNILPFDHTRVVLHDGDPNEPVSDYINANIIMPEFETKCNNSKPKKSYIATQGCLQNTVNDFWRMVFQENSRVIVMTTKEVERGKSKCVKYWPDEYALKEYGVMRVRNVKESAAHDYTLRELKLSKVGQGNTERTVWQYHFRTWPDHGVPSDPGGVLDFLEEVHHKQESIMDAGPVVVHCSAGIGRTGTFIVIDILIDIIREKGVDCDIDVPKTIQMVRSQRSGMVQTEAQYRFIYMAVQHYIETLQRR

[3] = target: PTPμ (Homo sapiens, UniProt P28827); assay: biochemical
Sequence of PTPμ (P28827 21-1452): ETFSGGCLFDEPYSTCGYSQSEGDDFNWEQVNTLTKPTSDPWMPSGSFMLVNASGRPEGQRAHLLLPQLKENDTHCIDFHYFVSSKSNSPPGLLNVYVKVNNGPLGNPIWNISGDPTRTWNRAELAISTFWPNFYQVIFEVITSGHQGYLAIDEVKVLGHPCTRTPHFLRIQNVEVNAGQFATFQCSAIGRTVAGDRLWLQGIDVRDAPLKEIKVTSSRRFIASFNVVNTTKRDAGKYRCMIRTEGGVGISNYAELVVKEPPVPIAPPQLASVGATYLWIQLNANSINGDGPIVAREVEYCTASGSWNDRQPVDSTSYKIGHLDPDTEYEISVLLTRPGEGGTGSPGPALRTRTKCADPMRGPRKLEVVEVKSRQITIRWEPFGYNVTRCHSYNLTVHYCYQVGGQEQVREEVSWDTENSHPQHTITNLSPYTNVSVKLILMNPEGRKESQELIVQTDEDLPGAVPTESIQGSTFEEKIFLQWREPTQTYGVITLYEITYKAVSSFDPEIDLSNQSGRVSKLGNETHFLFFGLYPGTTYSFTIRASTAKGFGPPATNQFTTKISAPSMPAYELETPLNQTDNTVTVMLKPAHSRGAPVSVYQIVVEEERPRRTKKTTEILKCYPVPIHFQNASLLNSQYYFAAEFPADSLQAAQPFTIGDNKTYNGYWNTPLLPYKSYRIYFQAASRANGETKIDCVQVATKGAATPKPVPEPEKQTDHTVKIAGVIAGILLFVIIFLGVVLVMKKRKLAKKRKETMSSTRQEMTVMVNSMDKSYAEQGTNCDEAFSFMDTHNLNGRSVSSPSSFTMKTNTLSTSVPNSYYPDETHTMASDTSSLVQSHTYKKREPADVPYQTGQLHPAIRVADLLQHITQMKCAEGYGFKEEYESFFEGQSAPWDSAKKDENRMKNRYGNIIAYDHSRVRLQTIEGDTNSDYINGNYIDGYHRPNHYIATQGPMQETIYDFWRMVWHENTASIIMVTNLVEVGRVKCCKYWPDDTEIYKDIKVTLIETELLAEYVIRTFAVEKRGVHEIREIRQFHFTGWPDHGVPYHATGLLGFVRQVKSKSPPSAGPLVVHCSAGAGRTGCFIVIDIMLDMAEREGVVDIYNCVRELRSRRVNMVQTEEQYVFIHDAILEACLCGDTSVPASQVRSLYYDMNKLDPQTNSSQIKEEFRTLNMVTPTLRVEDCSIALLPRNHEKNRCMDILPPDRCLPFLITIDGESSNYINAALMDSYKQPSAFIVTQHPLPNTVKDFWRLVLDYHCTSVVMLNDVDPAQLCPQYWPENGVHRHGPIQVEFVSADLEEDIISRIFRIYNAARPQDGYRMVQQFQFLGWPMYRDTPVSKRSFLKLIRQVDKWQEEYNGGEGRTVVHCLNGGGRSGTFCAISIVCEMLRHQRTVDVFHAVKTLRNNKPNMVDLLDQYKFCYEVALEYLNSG

[4] = target: SHP2/E508A (Homo sapiens, UniProt Q06124, E508A); assay: SHP2 mutant inhibition assay (pNPP); format: biochemical; details: pH 7.0
Sequence of SHP2/E508A (Q06124 224-528 E508A): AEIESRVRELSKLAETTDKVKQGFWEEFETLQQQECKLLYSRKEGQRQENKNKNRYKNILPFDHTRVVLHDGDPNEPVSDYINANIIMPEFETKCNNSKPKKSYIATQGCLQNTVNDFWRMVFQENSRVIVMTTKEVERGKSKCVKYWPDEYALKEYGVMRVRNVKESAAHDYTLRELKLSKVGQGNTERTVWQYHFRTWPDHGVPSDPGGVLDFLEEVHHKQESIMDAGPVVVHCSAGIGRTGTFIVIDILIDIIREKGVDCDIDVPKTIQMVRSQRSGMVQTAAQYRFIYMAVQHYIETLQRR

[5] = target: T2, PP5 (Homo sapiens, UniProt P53041); assay: biochemical
T2 sequence (P53041 1-499): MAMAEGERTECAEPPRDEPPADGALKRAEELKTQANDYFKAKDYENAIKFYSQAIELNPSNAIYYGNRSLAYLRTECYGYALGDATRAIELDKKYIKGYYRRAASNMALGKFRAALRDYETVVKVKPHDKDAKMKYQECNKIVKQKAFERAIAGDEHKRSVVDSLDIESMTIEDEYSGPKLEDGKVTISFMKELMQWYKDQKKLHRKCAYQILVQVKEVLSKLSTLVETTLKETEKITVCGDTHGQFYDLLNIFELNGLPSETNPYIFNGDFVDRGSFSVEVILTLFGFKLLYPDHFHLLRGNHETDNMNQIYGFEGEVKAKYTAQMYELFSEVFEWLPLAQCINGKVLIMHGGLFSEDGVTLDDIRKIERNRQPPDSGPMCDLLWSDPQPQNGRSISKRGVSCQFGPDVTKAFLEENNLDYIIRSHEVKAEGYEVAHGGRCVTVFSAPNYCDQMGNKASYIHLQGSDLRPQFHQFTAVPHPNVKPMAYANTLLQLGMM

[6] = Stability in buffer solutions by LC-MS; format: physicochemical
Protocol: as §1

[7] = target: SHP2/R362A (Homo sapiens, UniProt Q06124, R362A); assay: SHP2 mutant inhibition assay (pNPP); format: biochemical
Sequence of SHP2/R362A (Q06124 224-528 R362A): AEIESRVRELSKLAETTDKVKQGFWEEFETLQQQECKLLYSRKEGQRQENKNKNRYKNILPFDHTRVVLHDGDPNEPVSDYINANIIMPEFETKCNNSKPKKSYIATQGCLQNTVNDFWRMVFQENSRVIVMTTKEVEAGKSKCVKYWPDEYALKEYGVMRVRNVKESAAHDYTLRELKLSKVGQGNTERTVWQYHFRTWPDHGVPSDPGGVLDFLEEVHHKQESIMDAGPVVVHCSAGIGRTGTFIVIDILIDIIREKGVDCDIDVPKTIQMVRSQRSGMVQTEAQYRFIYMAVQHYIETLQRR

[8] = system: MDA-MB-231 breast cancer cell line; assay: MTT cell proliferation assay; format: cell-based, human; details: 20 μM and 40 μM, 2 days
Protocol: (§2) Human non-small cell lung carcinoma cell line H1975 was cultured at 37° C. and 5% CO2 in RPMI-1640 (Corning) supplemented with 10% fetal bovine serum (HyClone). Human breast cancer cell line MDA-MB-231 was cultured in DMEM supplemented with 10% fetal bovine serum. For cell proliferation assay, 2˜3×10^3 cells were seeded in each well of 96-well plates. After treating cells with compounds for 2 days, cells were incubated with 50 μg/ml MTT (3-(4,5-Dimethylthiazol-2-yl)-2,5-diphenyltetrazolium bromide) for ˜3-4 hours. Then, the culture medium was removed, DMSO was added to dissolve the formazan crystals. Wells containing only media were used for background correction. The optical density was measured spectrophotometrically at 540 nm. For signaling analysis, cells were serum-starved overnight followed by treatment with vehicle or compounds for 3 hours, and then either left un-stimulated or stimulated with 5 μg/ml EGF or 10 nM PMA (Sigma) for indicated time. Cells were lysed and the lysates were electrophoresed on a 10% polyacrylamide gel, and then transferred to a nitrocellulose membrane, and probed with anti-phospho-ERK1/2 and anti-ERK1/2 (Cell Signaling) antibodies followed by incubation with horseradish peroxidase-conjugated secondary antibodies. The blots were developed by the enhanced chemiluminescence technique using the SuperSignal West Pico Chemiluminescent substrate (Pierce).

[9] = system: H1975 non-small cell lung cancer (NSCLC) cell line; assay: MTT cell proliferation assay; format: cell-based, human; details: 20 μM and 40 μM, 2 days
Protocol: as §2

[10] = system: SKBR3 cells; assay: Cell growth in 3D Matrigel; format: cell-based; details: 5 days
Protocol: (§3) Approximately 300,000 SKBR3 cells were seeded into 150 μL of growth factor reduced Matrigel (BD) that was then covered with 2 mLs of media containing either 20 μL vehicle (DMSO) or the indicated concentrations of compound 2. Cells were then imaged at 24-hour intervals using a NIKON SMZ1500 stereomicroscope. After 5 days the cells were recovered from the Matrigel by the following method. Media was aspirated and cells were washed with 500 μL of cold PBS. 150 μL of RIPA lysis buffer supplemented with ProteCEASE-50. EDTA Free protease inhibitors (GBiosciences) was added to the Matrigel. Cells were scraped into a slurry and instantly frozen using dry ice for 5 minutes. After thawing tubes were spun down at 4° C. for 10 minutes at 14K rpm. Proteins were then resolved by SDS-PAGE and the relative levels of total and phospho-ERK1/2 were detected by immunoblot analysis.

[11] = system: PMA-stimulated ERK1/2 phosphorylation; assay: PMA-induced ERK1/2 phosphorylation immunoblot; format: cell-based, human
Protocol: as §2

[12] = system: EGF-mediated ERK1/2 phosphorylation in H1975 cells; assay: EGF-induced ERK1/2 phosphorylation immunoblot; format: cell-based, human; details: compound 7 at 40 μM
Protocol: as §2

[13] = system: ERK1/2 phosphorylation in SKBR3 cells; assay: ERK1/2 immunoblot of cells recovered from Matrigel; format: cell-based; details: 5 days
Protocol: as §3

[14] = system: M. tuberculosis (Erdman and H37Rv) in J774 macrophages; assay: Macrophage assay: growth of M. tuberculosis in IFN-γ activated J774 macrophages; format: cell-based, Mycobacterium tuberculosis
[15] = Pharmacokinetics and bioavailability in guinea pigs; format: in vivo, guinea pig; details: oral
Protocol: All drugs were suspended in 1% DMSO, 0.5% DEA, 48.5% PEG 400, and 50% water. Blood was collected for analysis of these drugs in plasma pre-dose and at 1, 4, 8, 24, and 48 h post-dose. Plasma was separated and stored at −70° C. until analysis. Plasma drug concentrations were determined by liquid chromatography-mass spectrometry and liquid chromatography-tandem mass spectrometry over the concentration range of 0.005-1 mg/L with dilution to 10 mg/L. Pharmacokinetic variables were calculated from individual drug concentration-time data using non-compartmental methods as implemented in WinNonlin version 5.0 (Pharsight, Mountain View, Calif.) as described earlier.

[16] = system: M. tuberculosis H37Rv; assay: Microplate Alamar Blue assay (MABA) MIC; format: cell-based, Mycobacterium tuberculosis
[17] = system: M. tuberculosis Erdman; assay: Microplate Alamar Blue assay (MABA) MIC; format: cell-based; details: Mycobacterium tuberculosis, minimum inhibitory concentration, read-out: In vitro anti-Mtb activity MABA-MIC Erdman
[18] = Example 9: SHP2 catalytic domain 20 nM, pNPP 3 mM, pH 7.0, 25° C., read-out: IC50 SHP2

NC(=O)c1cc[n+](CC2=C(C(=O)O)N3C(=O)[C@@H](NC(=O)[C@@H](c4ccccc4)S(=O)(=O)[O-])[C@H]3SC2)cc1 [Cefsulodin, reference compound]
Covalent adduct formation with SHP2 (QTOF ESI-MS) [1]: no covalent adduct formation | IC50 [2, 18]: 16.8 µM and 16.7 µM | Ki ([2]; Lineweaver-Burk, pNPP as substrate): 6.6 ± 0.2 µM | Fold selectivity for SHP2 against PTPs examined [2]: greater than 10 fold | IC50 ([2]; incubated with SHP2 for 30 minutes prior to addition of pNPP, read-out: IC50 SHP2, inhibitor pre-mixed with SHP2): 16.8 ± 1.8 µM | IC50 ([2]; incubated with pNPP for 30 minutes prior to addition of SHP2, read-out: IC50 SHP2, inhibitor pre-mixed with pNPP): 17.5 ± 2 µM | Mode of SHP2 inhibition [2]: competitive inhibitor | Mode of SHP2 inhibition ([2]; listed as cefsulodin): competitive and reversible SHP2 inhibitor | IC50 [3]: > 200 µM | IC50 [4]: 19 ± 1 µM | IC50 [5]: > 200 µM | Degradation in pH 5.8 MES buffer ([6]; 20 mM MES, 250 mM NaCl, 1 mM EDTA, LC-MS): negligible | Degradation in pH 7.4 CBTP buffer ([6]; 33 mM Citric acid, 67 mM BIS-TRIS Propane, LC-MS): obvious | Degradation in CBTP buffer at pH 9.1 ([6]; LC-MS): further accelerated | Time stable in MES buffer pH=5.8 ([6]; LC-MS): at least 2 days | Time until compound was gone in CBTP buffer pH=9.1 ([6]; LC-MS): ≤ 12 h | Time to complete degradation under crystallization condition ([6]; final pH=7.1, 20° C., with SHP2 and DTT): ≤ 2 days | IC50 ([7]; pNPP, pH 7.0): 46.5 ± 4.9 µM | Fold increase of IC50 by replacement of R362 with alanine ([7]; vs wild-type SHP2): 3 fold

O=C(Nc1ccc(I)cc1)C(=O)Nc1ccc(NC(=O)C(c2ccccc2)S(=O)(=O)O)cc1 (stereo not shown) [Compound 2, 2-((4-(2-((4-iodophenyl)amino)-2-oxoacetamido)phenyl)amino)-2-oxo-1-phenylethanesulfonic acid]
IC50 [2, 18]: 1.51 ± 0.06 µM | Fold selectivity for SHP2 against PTPs examined [2]: at least 4 fold | IC50 [3]: > 10 µM | MDA-MB-231 cell survival/growth (MTT) [8]: dose dependently inhibited; also recorded: significantly (**p<0.01) reduced cell survival | H1975 cell proliferation (MTT) [9]: reduce H1975 cell proliferation in a dose dependent manner; also recorded: dose dependently inhibited; also recorded: significantly (**p<0.01) reduced cell proliferation | SKBR3 cell growth in Matrigel ([10]; 20 μM): partial inhibition | SKBR3 cell growth in Matrigel ([10]; 40 μM): almost completely absent | Effect on PMA-stimulated ERK1/2 phosphorylation [11]: no effect on PMA-stimulated ERK1/2 phosphorylation | IC50 [5]: > 10 µM | Effect on EGF-mediated ERK1/2 phosphorylation [12]: reduced EGF-mediated ERK1/2 phosphorylation in a dose-dependent manner; also recorded: decrease the EGF-mediated ERK1/2 phosphorylation in a dose dependent manner | ERK1/2 activity in SKBR3 cells in Matrigel ([13]; 20 μM): partial inhibition | ERK1/2 activity in SKBR3 cells in Matrigel ([13]; 40 μM): barely detectable

O=C(O)c1cc2c(C#Cc3cccc(C(F)(F)F)c3)c(-c3ccccc3)oc2cc1O [Compound L01Z08]
Anti-Mtb activity in infected macrophages ([14]; J774A.1 macrophages, low micromolar concentrations): potent anti-Mtb activity | IC90 ([14]; Mycobacterium tuberculosis, J774, IC90 in macrophages activated with interferon-γ, read-out: In vitro anti-Mtb activity, Mtb-infected macrophages (IC90)): < 5 µM | Oral bioavailability and half-life in guinea pigs [15]: good oral bioavailability and half-life | Activity in standard MIC assay [16]: inactive | MIC ([16]; Mycobacterium tuberculosis, H37RV, minimum inhibitory concentration, read-out: In vitro anti-Mtb activity MABA-MIC H37Rv): > 10 µM | MIC [17]: > 10 µM
